Results: patent publication US4933347A, “Diamidines and bis(imidazolines) for the treatment of and prophylaxis against pneumocystis carinii pneumonia” (University of North Carolina at Chapel Hill, priority 1988, dated 1990)

Experiments:
[1] = test system: Pneumocystis carinii; test: Treatment of Pneumocystis carinii pneumonia in Sprague-Dawley rats (extent of disease by histologic score); type: in vivo, male Sprague-Dawley rats; conditions: for Extent of Disease by Histologic Score: number of animals with score 0.5 / Extent of Disease by Histologic Score: number of animals with score 1 / Extent of Disease by Histologic Score: number of animals with score 2 / Extent of Disease by Histologic Score: number of animals with score 3 / Extent of Disease by Histologic Score: number of animals with score 4: 14 days; for Extent of Disease by Histologic Score: number of animals with score 0.5 / Extent of disease by histologic score (combined): number of animals in scoring group 0.5: 0.5 = <10 cysts found per 2 sections; for Extent of Disease by Histologic Score: number of animals with score 1 / Extent of disease by histologic score (combined): number of animals in scoring group 1: 1 = scattered cysts, <5% of lung involved; for Extent of Disease by Histologic Score: number of animals with score 2 / Extent of disease by histologic score (combined): number of animals in scoring group 2: 2 = scattered cysts; for Extent of Disease by Histologic Score: number of animals with score 2: 5-10% lung involved or small foci of infection; for Extent of Disease by Histologic Score: number of animals with score 3 / Extent of disease by histologic score (combined): number of animals in scoring group 3: 3 = scattered cysts; for Extent of Disease by Histologic Score: number of animals with score 3: 10-50% of lung involved with some intense areas of infection; for Extent of Disease by Histologic Score: number of animals with score 4: 4 = >50% of lung involved with many intense areas of focal infection; for Extent of disease by histologic score (combined): number of animals in scoring group 0.5 / Extent of disease by histologic score (combined): number of animals in scoring group 1 / Extent of disease by histologic score (combined): number of animals in scoring group 2 / Extent of disease by histologic score (combined): number of animals in scoring group 3 / Extent of disease by histologic score (combined): number of animals in scoring group 4: Table XII composite; for Extent of disease by histologic score (combined): number of animals in scoring group 2: 5-10% of lung involved; for Extent of disease by histologic score (combined): number of animals in scoring group 3: 10-50% of lung involved; for Extent of disease by histologic score (combined): number of animals in scoring group 4: 4 = >50% of lung involved
[2] = Toxicity of amidines in rats (standard laboratory procedure); type: in vivo
Experimental: Compounds having the structure represented by Formula I were synthesized in accordance with the appropriate procedures discussed previously. The reaction schemes shown in Charts I-III specifically identify the methodology used to synthesize the compounds of the respective examples. The compounds which were synthesized are shown in Table IA and the elemental analysis and melting points of the compounds are shown in Table IB. Most of the compounds were tested for toxicity in rats using standard laboratory procedure and the results of that toxicity testing are shown in Table XII. The compounds of Examples 31, 32, and 34 were not synthesized but may be synthesized in the general manner discussed previously.

[3] = 10 mg/kg unless otherwise noted
[4] = dose as in value, else not given in Table XIII (10 mg/kg test dose)

N=C(N)c1ccc(NCCCCCNc2ccc(C(=N)N)cc2)cc1 [Example 17]
Extent of Disease by Histologic Score: number of animals with score 0.5 ([1]; 10 mg/kg i.v. daily): 1 animals | Extent of Disease by Histologic Score: number of animals with score 1 ([1]; 10 mg/kg i.v. daily): 2 animals | Extent of Disease by Histologic Score: number of animals with score 2 ([1]; 10 mg/kg i.v. daily): 3 animals | Extent of Disease by Histologic Score: number of animals with score 3 ([1]; 10 mg/kg i.v. daily): 1 animals | Extent of Disease by Histologic Score: number of animals with score 4 ([1]; 10 mg/kg i.v. daily): 0 animals | Efficacy in treating PCP compared with pentamidine [1, 3]: better than or equal to pentamidine | Extent of disease by histologic score (combined): number of animals in scoring group 0.5 ([1]; 10 mg/kg): 1 animals | Extent of disease by histologic score (combined): number of animals in scoring group 1 ([1]; 10 mg/kg): 2 animals | Extent of disease by histologic score (combined): number of animals in scoring group 2 ([1]; 10 mg/kg): 3 animals | Extent of disease by histologic score (combined): number of animals in scoring group 3 ([1]; 10 mg/kg): 1 animals | Extent of disease by histologic score (combined): number of animals in scoring group 4 ([1]; 10 mg/kg): 0 animals | Efficacy in treating PCP compared with related compounds of the series ([1]; effect of chain length or substituent): least effective | Deaths by day 13 ([2]; rat, in vivo): 2 deaths

CN1CCN=C1c1ccc(OCCCCCOc2ccc(C3=NCCN3C)cc2)cc1 [Example 42]
Extent of Disease by Histologic Score: number of animals with score 0.5 ([1]; 2.5 mg/kg i.v. daily): 0 animals | Extent of Disease by Histologic Score: number of animals with score 1 ([1]; 2.5 mg/kg i.v. daily): 0 animals | Extent of Disease by Histologic Score: number of animals with score 2 ([1]; 2.5 mg/kg i.v. daily): 2 animals | Extent of Disease by Histologic Score: number of animals with score 3 ([1]; 2.5 mg/kg i.v. daily): 3 animals | Extent of Disease by Histologic Score: number of animals with score 4 ([1]; 2.5 mg/kg i.v. daily): 3 animals | Extent of disease by histologic score (combined): number of animals in scoring group 0.5 ([1]; tested at 2.5 mg/kg): 0 animals | Extent of disease by histologic score (combined): number of animals in scoring group 1 ([1]; tested at 2.5 mg/kg): 0 animals | Extent of disease by histologic score (combined): number of animals in scoring group 2 ([1]; tested at 2.5 mg/kg): 2 animals | Extent of disease by histologic score (combined): number of animals in scoring group 3 ([1]; tested at 2.5 mg/kg): 3 animals | Extent of disease by histologic score (combined): number of animals in scoring group 4 ([1]; tested at 2.5 mg/kg): 3 animals | Toxicity of amidines: Effect [2, 4]: Acute toxicity at 10 mg/kg and 5 mg/kg | Toxicity of amidines: Effect ([2]; rat, in vivo, 2.5 mg/kg): no toxicity

CN1CCN=C1c1ccc(OCCCCOc2ccc(C3=NCCN3C)cc2)cc1 [Example 41]
Extent of Disease by Histologic Score: number of animals with score 0.5 ([1]; 2.5 mg/kg i.v. daily): 0 animals | Extent of Disease by Histologic Score: number of animals with score 1 ([1]; 2.5 mg/kg i.v. daily): 0 animals | Extent of Disease by Histologic Score: number of animals with score 2 ([1]; 2.5 mg/kg i.v. daily): 2 animals | Extent of Disease by Histologic Score: number of animals with score 3 ([1]; 2.5 mg/kg i.v. daily): 4 animals | Extent of Disease by Histologic Score: number of animals with score 4 ([1]; 2.5 mg/kg i.v. daily): 2 animals | Extent of disease by histologic score (combined): number of animals in scoring group 0.5 ([1]; tested at 2.5 mg/kg): 0 animals | Extent of disease by histologic score (combined): number of animals in scoring group 1 ([1]; tested at 2.5 mg/kg): 0 animals | Extent of disease by histologic score (combined): number of animals in scoring group 2 ([1]; tested at 2.5 mg/kg): 2 animals | Extent of disease by histologic score (combined): number of animals in scoring group 3 ([1]; tested at 2.5 mg/kg): 4 animals | Extent of disease by histologic score (combined): number of animals in scoring group 4 ([1]; tested at 2.5 mg/kg): 2 animals | Toxicity of amidines: Effect ([2]; rat, in vivo, 2.5 mg/kg): no toxicity

N=C(N)c1ccc(OCCCCOc2ccc(C(=N)N)cc2Cl)c(Cl)c1 [Example 24]
Extent of Disease by Histologic Score: number of animals with score 0.5 ([1]; 2.5 mg/kg i.v. daily): 0 animals | Extent of Disease by Histologic Score: number of animals with score 1 ([1]; 2.5 mg/kg i.v. daily): 1 animals | Extent of Disease by Histologic Score: number of animals with score 2 ([1]; 2.5 mg/kg i.v. daily): 2 animals | Extent of Disease by Histologic Score: number of animals with score 3 ([1]; 2.5 mg/kg i.v. daily): 3 animals | Extent of Disease by Histologic Score: number of animals with score 4 ([1]; 2.5 mg/kg i.v. daily): 2 animals | Extent of disease by histologic score (combined): number of animals in scoring group 0.5 ([1]; tested at 2.5 mg/kg): 0 animals | Extent of disease by histologic score (combined): number of animals in scoring group 1 ([1]; tested at 2.5 mg/kg): 1 animals | Extent of disease by histologic score (combined): number of animals in scoring group 2 ([1]; tested at 2.5 mg/kg): 2 animals | Extent of disease by histologic score (combined): number of animals in scoring group 3 ([1]; tested at 2.5 mg/kg): 3 animals | Extent of disease by histologic score (combined): number of animals in scoring group 4 ([1]; tested at 2.5 mg/kg): 2 animals | Toxicity of amidines: Effect ([2]; rat, in vivo, 2.5 mg/kg): None

COc1cc(C(=N)N)ccc1OCCCCOc1ccc(C(=N)N)cc1OC [Example 11]
Extent of Disease by Histologic Score: number of animals with score 0.5 ([1]; 5 mg/kg i.v. daily): 3 animals | Extent of Disease by Histologic Score: number of animals with score 1 ([1]; 5 mg/kg i.v. daily): 4 animals | Extent of Disease by Histologic Score: number of animals with score 2 ([1]; 5 mg/kg i.v. daily): 1 animals | Extent of Disease by Histologic Score: number of animals with score 3 ([1]; 5 mg/kg i.v. daily): 0 animals | Extent of Disease by Histologic Score: number of animals with score 4 ([1]; 5 mg/kg i.v. daily): 0 animals | Extent of disease by histologic score (combined): number of animals in scoring group 0.5 ([1]; tested at 5 mg/kg): 3 animals | Extent of disease by histologic score (combined): number of animals in scoring group 1 ([1]; tested at 5 mg/kg): 4 animals | Extent of disease by histologic score (combined): number of animals in scoring group 2 ([1]; tested at 5 mg/kg): 1 animals | Extent of disease by histologic score (combined): number of animals in scoring group 3 ([1]; tested at 5 mg/kg): 0 animals | Extent of disease by histologic score (combined): number of animals in scoring group 4 ([1]; tested at 5 mg/kg): 0 animals | Efficacy in treating PCP compared with control ([1]; compound at 5 mg/kg): significantly better, at one half the dose, than the control | Toxicity of amidines: Effect ([2]; rat, in vivo, 5 mg/kg): None

N=C(N)c1ccc(NCCCCNc2ccc(C(=N)N)cc2)cc1 [Example 8]
Extent of Disease by Histologic Score: number of animals with score 0.5 ([1]; 10 mg/kg i.v. daily): 3 animals | Extent of Disease by Histologic Score: number of animals with score 1 ([1]; 10 mg/kg i.v. daily): 1 animals | Extent of Disease by Histologic Score: number of animals with score 2 ([1]; 10 mg/kg i.v. daily): 0 animals | Extent of Disease by Histologic Score: number of animals with score 3 ([1]; 10 mg/kg i.v. daily): 0 animals | Extent of Disease by Histologic Score: number of animals with score 4 ([1]; 10 mg/kg i.v. daily): 0 animals | Efficacy in treating PCP compared with pentamidine [1, 3]: better than or equal to pentamidine | Extent of disease by histologic score (combined): number of animals in scoring group 0.5 ([1]; 10 mg/kg): 3 animals | Extent of disease by histologic score (combined): number of animals in scoring group 1 ([1]; 10 mg/kg): 1 animals | Extent of disease by histologic score (combined): number of animals in scoring group 2 ([1]; 10 mg/kg): 0 animals | Extent of disease by histologic score (combined): number of animals in scoring group 3 ([1]; 10 mg/kg): 0 animals | Extent of disease by histologic score (combined): number of animals in scoring group 4 ([1]; 10 mg/kg): 0 animals | Deaths by day 7 ([2]; rat, in vivo): 3 deaths

N=C(N)c1ccc(OCCCCCCOc2ccc(C(=N)N)cc2N)c(N)c1 [Example 22]
Extent of Disease by Histologic Score: number of animals with score 0.5 ([1]; 5 mg/kg i.v. daily): 0 animals | Extent of Disease by Histologic Score: number of animals with score 1 ([1]; 5 mg/kg i.v. daily): 1 animals | Extent of Disease by Histologic Score: number of animals with score 2 ([1]; 5 mg/kg i.v. daily): 4 animals | Extent of Disease by Histologic Score: number of animals with score 3 ([1]; 5 mg/kg i.v. daily): 3 animals | Extent of Disease by Histologic Score: number of animals with score 4 ([1]; 5 mg/kg i.v. daily): 0 animals | Extent of disease by histologic score (combined): number of animals in scoring group 0.5 ([1]; tested at 5 mg/kg): 0 animals | Extent of disease by histologic score (combined): number of animals in scoring group 1 ([1]; tested at 5 mg/kg): 1 animals | Extent of disease by histologic score (combined): number of animals in scoring group 2 ([1]; tested at 5 mg/kg): 4 animals | Extent of disease by histologic score (combined): number of animals in scoring group 3 ([1]; tested at 5 mg/kg): 3 animals | Extent of disease by histologic score (combined): number of animals in scoring group 4 ([1]; tested at 5 mg/kg): 0 animals | Efficacy in treating PCP compared with pentamidine ([1]; compound at 5 mg/kg): significantly less effective than the other compounds or pentamidine | Toxicity of amidines: Effect [2, 4]: Acute toxicity - death at 10 mg/kg | Toxicity (words in running text) ([2]; rat, in vivo): toxic
